Values quoted from earlier work in patent US7125861B2, “Water-soluble chitosan-indole-3-propionic acid conjugates” (priority 2003, dated 2006).

Conditions: background statement on unconjugated indole-3-propionic acid

O=C(O)CCc1c[nH]c2ccccc12 [indole-3-propionic acid, 3-(3-Indolyl)propanoic acid]
solubility in water: not water soluble
